Patent US9428462B2, “4-[-2-[[5-methyl-1-(2-naphthalenyl)-1H-pyrazol-3-yl]oxy]ethyl]morpholine hydrochloride amorphous solid forms” (priority 2010, dated 2016)

Key:
Type in all cases: physicochemical
[1] = 1H NMR check of the stability of the salt in amorphous form samples; details: several samples of the amorphous form, CDCl3
Description: In addition, several samples of the amorphous form obtained were analyzed by ^1H NMR in order to check the stability of the salt (FIG. 2 is a ^1H NMR spectrum of the amorphous phase).
Proton nuclear magnetic resonance analyses were recorded in deuterated chloroform (CDCl3) in a Bruker Avance 400 Ultrashield NMR spectrometer, equipped with a z-gradient 5 mm BBO (Broadband Observe) probe with ATM and an automatic BACS-120 autosampler. Spectra were acquired solving 2-10 mg of sample in 0.6 mL of deuterated solvent.

[2] = Drying experiments of the amorphous phase for four hours at different temperatures, solid analyzed by PXRD; details: for Solid phase after drying: PXRD
Description: (§1) Approximately 20 mg of the non manipulated samples were prepared in standard sample holders using two foils of polyacetate.
(§2) Powder diffraction patterns were acquired on a D8 Advance Series 2Theta/Theta powder diffraction system using CuKα-radiation in transmission geometry (Wavelength: 1.54060 Å). The system was equipped with a VANTEC-1 single photon counting PSD, a Germanium monochromator, a ninety positions auto changer sample stage, fixed divergence slits and radial soller. Programs used: Data collection with DIFFRAC plus XRD Commander V.2.5.1 and evaluation with EVA V.12.0.
In order to test the stability of the amorphous phase and to investigate its stability, different portions of the amorphous phase were dried for four hours at different temperatures (table 5). Once the samples were dried the solid was analyzed by PXRD.

[3] = Drying experiments of the amorphous phase under vacuum (5-7 mbar) at different temperatures and times, solid analyzed by PXRD; details: for Solid phase after drying under vacuum: PXRD
Description: as §1, §2
In a second experiment, different portions of the amorphous phase were dried under vacuum conditions (5-7 mbar) at room temperature, 40° C. and 60° C. for different times (4, 8, 16 and 24 hours; table 6). Once the samples were dried, the solid was analyzed by PXRD. […] In the experiments performed at 40° C. the amorphous phase began to crystallize after 16 hours. In the experiments performed at 60° C. the amorphous phase began to crystallize after 8 hours and phase I could be clearly identified after 16 hours.

- Solid phase after drying ([2]; Sample 1: dried four hours at rt): amorphous
- Solid phase after drying ([2]; Sample 2: dried four hours at 40 °C): amorphous
- Solid phase after drying ([2]; Sample 3: dried four hours at 50 °C): amorphous
- Solid phase after drying ([2]; Sample 4: dried four hours at 60 °C): amorphous
- Solid phase after drying ([2]; Sample 5: dried four hours at 80 °C): amorphous + crystalline
- Solid phase after drying ([2]; Sample 6: dried four hours at 90 °C): amorphous + crystalline
- Solid phase after drying ([2]; Sample 7: dried four hours at 100 °C): phase I + crystalline
- Solid phase after drying ([2]; Sample 8: dried four hours at 110 °C): phase I
- Solid phase after drying ([2]; Sample 9: dried four hours at 120 °C): phase I
- Stability of the amorphous phase on drying ([2]; four hours at temperature higher than 100° C.): transformed clearly to phase I
- Stability of the amorphous phase on drying ([2]; temperatures up to 60° C. for four hours): amorphous phase was recovered
- Solid phase after drying under vacuum ([3]; Sample 10: vacuum 5-7 mbar, 23° C., 4 hours): amorphous
- Solid phase after drying under vacuum ([3]; Sample 11: vacuum 5-7 mbar, 23° C., 8 hours): amorphous
- Solid phase after drying under vacuum ([3]; Sample 12: vacuum 5-7 mbar, 23° C., 16 hours): amorphous
- Solid phase after drying under vacuum ([3]; Sample 13: vacuum 5-7 mbar, 23° C., 24 hours): amorphous
- Solid phase after drying under vacuum ([3]; Sample 14: vacuum 5-7 mbar, 40° C., 4 hours): amorphous
- Solid phase after drying under vacuum ([3]; Sample 15: vacuum 5-7 mbar, 40° C., 8 hours): amorphous
- Solid phase after drying under vacuum ([3]; Sample 16: vacuum 5-7 mbar, 40° C., 16 hours): amorphous + phase I
- Solid phase after drying under vacuum ([3]; Sample 17: vacuum 5-7 mbar, 40° C., 24 hours): amorphous + phase I
- Solid phase after drying under vacuum ([3]; Sample 18: vacuum 5-7 mbar, 60° C., 4 hours): amorphous
- Solid phase after drying under vacuum ([3]; Sample 19: vacuum 5-7 mbar, 60° C., 8 hours): amorphous + phase I
- Solid phase after drying under vacuum ([3]; Sample 20: vacuum 5-7 mbar, 60° C., 16 hours): phase I
- Solid phase after drying under vacuum ([3]; Sample 21: vacuum 5-7 mbar, 60° C., 24 hours): phase I
- Time after which the amorphous phase began to crystallize ([3]; vacuum 5-7 mbar, 40° C.): 16 h
- Time after which phase I could be clearly identified ([3]; vacuum 5-7 mbar, 60° C.): 16 h
- Time after which the amorphous phase began to crystallize ([3]; vacuum 5-7 mbar, 60° C.): 8 h
- Stability of the amorphous phase on drying under vacuum ([3]; vacuum 5-7 mbar, room temperature, up to 24 hours): did not change after drying
SMILES: Cc1cc(OCCN2CCOCC2)nn1-c1ccc2ccccc2c1.Cl [amorphous phase, 4-[2-[[5-methyl-1-(2-naphthalenyl)-1H-pyrazol-3-yl]oxy]ethyl]morpholine hydrochloride]
- Stability of the salt by 1H NMR [1]: no signs of the lost of HCl or decomposition of the samples could be observed
- Stability of the amorphous phase on drying ([2]; temperatures over 60° C., four hours): transformed slightly to a crystalline phase, not clearly identified
